Assay results published in patent US9456599B2, “Adjuvants” (SYNGENTA LIMITED, priority 2012, dated 2016).

Experiments:
Septoria tritici [1] = assay: Septoria tritici on wheat, epoxiconazole with compound E (Example 9); type: in vivo
Description: (§1) Wheat plants were inoculated with the fungus Septoria tritici. Four days after inoculation the plants were sprayed with a diluted suspension concentrate formulation of the fungicide epoxiconazole at rates of 3, 10, 30 and 100 mg of the fungicide per liter of spray solution, using a laboratory track sprayer which delivered the spray at a rate of 200 liters per hectare. Spray tests were also carried out with a diluted suspension concentrate additionally comprising the carbonate compound E (see Table 7) added to the spray solution at a rate of 0.1% v/v, based on the quantity of spray liquor. The leaves of the plants were assessed visually 12 days after the spray application and the damage was expressed as the percentage of the leaf area infected. Each spray test was replicated four times across the four application rates.
(§2) The results shown in Table 14 below are mean averages over the four rates of epoxiconazole and the four replicates, and are compared to the efficacy of epoxiconazole in the absence of an adjuvant, and epoxiconazole in the presence of oleyl ethoxylate 20EO butyl end capped adjuvant used as a standard adjuvant for comparative purposes (at 0.1% by volume).

[2] = system: Setaria viridis, Chenopodium album, Abutilon theophrasti and Ipomea hederacea; assay: Glasshouse post-emergence spray test, fomesafen with adjuvant (Example 2), mean across species; type: in vivo; conditions: fomesafen 60 or 120 g/ha, carbonate 0.2% v/v or Turbocharge 0.5% v/v; 14 and 21 days; Tukey HSD letter
Description: (§3) Setaria viridis, Chenopodium album, Abutilon theophrasti and Ipomea hederacea seeds were sown into standard soil in pots and cultivated under controlled conditions in a glasshouse (at 24/18° C. day/night; 16 hours light; 65% humidity).
(§4) When the plants were at the vegetative stage of 2-4 leaves they were sprayed with an aqueous spray solution containing the herbicide fomesafen and 0.2% v/v of one of the carbonates B92-P-Carbonate, B92-B-Carbonate and B96-P-Carbonate (see Table 1).
(§5) The spray solution was applied with a cabinet tracksprayer with a flat fan nozzle (Teejet 11002VS) and an application volume of 200 liter/ha (at 2 bar). Fomesafen was applied at either 60 or 120 grams of pesticide per hectare.
(§6) The test plants were then grown on, in a glasshouse under controlled conditions (at 24/18° C. day/night; 16 hours light; 65% humidity) and watered twice a day. After 14 and 21 days the test was evaluated for general crop injury (100% equals total damage to a plant; 0% equals no damage to a plant).
(§7) The results shown in Table 4 below are mean averages over the two rates of fomesafen, three replicates and the two assessment timings, and are compared to the efficacy of fomesafen in the absence of an adjuvant, and fomesafen in the presence of the commercially available tank-mix adjuvant, Turbocharge®, which was used at an application rate of 0.5% by volume of the spray tank.

COMBEN = assay: Glasshouse post-emergence spray test, fomesafen with adjuvant (Example 2); type: in vivo, Ipomea hederacea; conditions: fomesafen 60 or 120 g/ha, carbonate 0.2% v/v or Turbocharge 0.5% v/v; mean over two rates, three replicates, 14 and 21 days
Setaria viridis [3] = assay: as above; type: in vivo; conditions: fomesafen 60 or 120 g/ha, carbonate 0.2% v/v or Turbocharge 0.5% v/v; mean over two rates, three replicates, 14 and 21 days
Description: as §3, §4, §5, §6, §7

Abutilon theophrasti [4] = assay: as above; type: in vivo; conditions: fomesafen 60 or 120 g/ha, carbonate 0.2% v/v or Turbocharge 0.5% v/v; mean over two rates, three replicates, 14 and 21 days
Description: as §3, §4, §5, §6, §7

Chenopodium album [5] = assay: as above; type: in vivo; conditions: fomesafen 60 or 120 g/ha, carbonate 0.2% v/v or Turbocharge 0.5% v/v; mean over two rates, three replicates, 14 and 21 days
Description: as §3, §4, §5, §6, §7

[6] = system: Setaria viridis, Chenopodium album, Abutilon theophrasti and Digitaria sanguinalis; assay: Glasshouse post-emergence spray test, nicosulfuron with adjuvant (Example 1), mean across species; type: in vivo; conditions: nicosulfuron 30 or 60 g/ha, adjuvant 0.2% by volume; 17 and 21 days; Tukey HSD letter
Description: (§8) Setaria viridis, Chenopodium album, Abutilon theophrasti and Digitaria sanguinalis seeds were sown into standard soil in pots and cultivated under controlled conditions in a glasshouse (at 24/18° C. day/night; 16 hours light; 65% humidity).
(§9) When the plants were at the vegetative stage of 3-4 leaves they were sprayed with an aqueous spray solution containing the herbicide nicosulfuron and 0.2% v/v of one of the carbonates, B92-P-Carbonate, B92-B-Carbonate and B96-P-Carbonate (see Table 1).
(§10) Each spray solution was applied with a cabinet tracksprayer with a flat fan nozzle (Teejet 11002VS) and an application volume of 200 liter/ha (at 2 bar). Nicosulfuron was applied at either 30 or 60 grams of pesticide per hectare.
(§11) The test plants were then grown on, in a glasshouse under controlled conditions (at 24/18° C. day/night; 16 hours light; 65% humidity) and watered twice a day. After 17 and 21 days the test was evaluated for general crop injury (100% equals total damage to a plant; 0% equals no damage to a plant).
(§12) The results shown in Table 3 below are mean averages over the two rates of nicosulfuron, three replicates and the two assessment timings, and are compared to the efficacy of nicosulfuron in the absence of an adjuvant and nicosulfuron in the presence of the commercially available tank-mix adjuvant, Atplus411F® (at 0.2% by volume).

Digitaria sanguinalis = assay: Glasshouse post-emergence spray test, nicosulfuron with adjuvant (Example 1); type: in vivo; conditions: nicosulfuron 30 or 60 g/ha, adjuvant 0.2% by volume; mean over two rates, three replicates, 17 and 21 days
Description: as §8, §9, §10, §11, §12

Setaria viridis [7] = assay: as above; type: in vivo; conditions: nicosulfuron 30 or 60 g/ha, adjuvant 0.2% by volume; mean over two rates, three replicates, 17 and 21 days
Description: as §8, §9, §10, §11, §12

Abutilon theophrasti [8] = assay: as above; type: in vivo; conditions: nicosulfuron 30 or 60 g/ha, adjuvant 0.2% by volume; mean over two rates, three replicates, 17 and 21 days
Description: as §8, §9, §10, §11, §12

Chenopodium album [9] = assay: as above; type: in vivo; conditions: nicosulfuron 30 or 60 g/ha, adjuvant 0.2% by volume; mean over two rates, three replicates, 17 and 21 days
Description: as §8, §9, §10, §11, §12

[10] = system: Setaria viridis, Chenopodium album, Abutilon theophrasti and Digitaria sanguinalis; assay: Glasshouse spray test, nicosulfuron with carbonates A-E (Example 5), mean over four plant species; type: in vivo; conditions: for Mean % Phytotoxicity: Atplus 411F 0.5% by volume, 22 days, mean over rates, replicates, four species; for Adjuvant effect on efficacy of nicosulfuron (in words): 0.2% v/v carbonate with nicosulfuron, Tables 8 and 9
Description: as §8
When the plants were at the vegetative stage of 3-4 leaves they were sprayed with an aqueous spray solution containing the herbicide nicosulfuron and 0.2% v/v of one of the carbonates A, B, C, D and E (see Table 7).
Each spray solution was applied with a cabinet tracksprayer with a flat fan nozzle (Teejet 11002VS) and an application volume of 200 liter/ha (at 2 bar). Nicosulfuron was applied at either 15 or 60 grams of pesticide per hectare.
as §6, with “22” for “14 and 21”, “injury or phytotoxicity” for “injury”
as §12, with “8” for “3”, “nicosulfuron, the” for “nicosulfuron,”, “four plant species,” for “two assessment timings,”, “0.5%” for “0.2%”

[11] = system: Brachiaria plantaginea, Digitaria sanguinalis, Commelina benghalensis and Polygonum convulvulus; assay: Glasshouse spray test, mesotrione with carbonates A-D (Example 6), mean over four plant species; type: in vivo; conditions: 0.2% v/v carbonate with mesotrione, Table 10
Description: Brachiaria plantaginea, Digitaria sanguinalis, Commelina benghalensis and Polygonum convulvulus seeds were sown into standard soil in pots and cultivated under controlled conditions in a glasshouse (at 24/18° C. day/night; 16 hours light; 65% humidity).
When the plants were at the vegetative stage of 2-4 leaves they were sprayed with an aqueous spray solution containing the herbicide mesotrione and 0.2% v/v of one of the carbonates A, B, C and D (see Table 7).
The spray solution was applied with a cabinet tracksprayer with a flat fan nozzle (Teejet 11002VS) and an application volume of 200 liter/ha (at 2 bar). Mesotrione was applied at either 30 or 60 grams of pesticide per hectare.
as §6, with “25” for “14 and 21”, “injury or phytotoxicity” for “injury”
The results shown in Table 10 below are mean averages over the two rates of mesotrione, the three replicates and the four plant species and are compared to the efficacy of mesotrione in the absence of an adjuvant, and mesotrione in the presence of the commercially available tank-mix adjuvant, Tween 20 ®+Rhodasurf DA/630-E® (combined in a 2:1 ratio) at 0.5% by volume.

[12] = system: Avena fatua, Lolium perenne, Setaria viridis and Alopecurus myosuroides; assay: Glasshouse spray test, pinoxaden with carbonates A-E (Example 7), mean over four plant species; type: in vivo; conditions: 0.2% v/v carbonate with pinoxaden, Tables 11 and 12
Description: Avena fatua, Lolium perenne, Setaria viridis and Alopecurus myosuroides seeds were sown into standard soil in pots and cultivated under controlled conditions in a glasshouse (at 20/16° C. day/night; 15 hours light; 65% humidity).
When the plants were at the vegetative stage of 2-3 leaves they were sprayed with an aqueous spray solution containing the herbicide pinoxaden and 0.2% v/v of one of the carbonates A, B, C, D and E (see Table 7).
The spray solution was applied with a cabinet tracksprayer with a flat fan nozzle (Teejet 11002VS) and an application volume of 200 liter/ha (at 2 bar). Pinoxaden was applied at either 7.5 or 15 grams of pesticide per hectare.
as §6, with “on.” for “on,”, “22” for “14 and 21”, “injury or phytotoxicity” for “injury”
The results shown in Table 11 below are mean averages over the two rates of pinoxaden, the three replicates and the four plant species, and are compared to the efficacy of pinoxaden in the absence of an adjuvant, and pinoxaden in the presence of tris(2-ethylhexyl)phosphate, used as a standard adjuvant for comparative purposes (at 0.2% by […] volume).

Septoria tritici [13] = assay: Septoria tritici on wheat, isopyrazam with compound E (Example 8); type: in vivo; conditions: 0.1% v/v compound E with isopyrazam, Table 13
Description: as §1, with “isopyrazam” for “epoxiconazole”
as §2, with “13” for “14”, “isopyrazam” for “epoxiconazole”

Fc1ccc([C@]2(Cn3cncn3)O[C@H]2c2ccccc2Cl)cc1 (racemic) [Epoxiconazole]
Mean % infection (Septoria tritici [1]; wheat leaf area infected 12 days after spray, epoxiconazole 3, 10, 30 and 100 mg/l, adjuvant 0.1% by volume, mean over four rates, four replicates): 40.0%

CS(=O)(=O)NC(=O)c1cc(Oc2ccc(C(F)(F)F)cc2Cl)ccc1[N+](=O)[O-] [Fomesafen]
Mean percentage kill, Mean across species [2]: 29.0 C % | Mean percentage kill COMBEN (COMBEN): 15.0% | Mean percentage kill SETVI (Setaria viridis [3]): 19.2% | Mean percentage kill ABUTH (Abutilon theophrasti [4]): 23.3% | Mean percentage kill CHEAL (Chenopodium album [5]): 58.3%

COc1cc(OC)nc(NC(=O)NS(=O)(=O)c2ncccc2C(=O)N(C)C)n1 [Nicosulfuron]
Mean percentage kill, Mean across species [6]: 49.0 B % | Mean percentage kill DIGSA (Digitaria sanguinalis): 31.7% | Mean percentage kill SETVI (Setaria viridis [7]): 79.2% | Mean percentage kill ABUTH (Abutilon theophrasti [8]): 48.3% | Mean percentage kill CHEAL (Chenopodium album [9]): 36.7% | Mean % Phytotoxicity ([10]; Table 8: nicosulfuron 15 or 60 g/ha, compounds A-D 0.2% by volume): 36.46% | Mean % Phytotoxicity ([10]; Table 9: nicosulfuron 15 or 60 g/ha, compound E 0.2% by volume): 28.3%

CCOC(=O)OCC(COC(=O)OCC)OC(=O)OCC [compound A, Glycerol-(CO3-ethyl)3]
Adjuvant effect on efficacy of nicosulfuron (in words) [10]: increase the efficacy of nicosulfuron compositions | Adjuvant effect on efficacy of mesotrione (in words) [11]: particularly effective at increasing the efficacy of mesotrione compositions

CCCCC(CC)COC(=O)OCC(COC(=O)OCC(CC)CCCC)OC(=O)OCC(CC)CCCC (stereo not drawn) [compound B, Glycerol-(CO3-2-ethylhexy1)3]
Adjuvant effect on efficacy of pinoxaden (in words) [12]: most effective at increasing the efficacy of the pinoxaden composition | Adjuvant effect on efficacy of nicosulfuron (in words) [10]: increase the efficacy of nicosulfuron compositions | Adjuvant effect on efficacy of mesotrione (in words) [11]: particularly effective at increasing the efficacy of mesotrione compositions

Glycerol-(6EO-CO3-2- ethylhexyl)3 [compound C]
Adjuvant effect on efficacy of nicosulfuron (in words) [10]: particularly effective as adjuvants for nicosulfuron

Glycerol-(6EO-CO3- phenyl)3 [compound D]
Adjuvant effect on efficacy of nicosulfuron (in words) [10]: particularly effective as adjuvants for nicosulfuron

Oleyl 10EO-(CO3-2- ethylhexyl) [compound E]
Effect on infection by S. tritici versus epoxiconazole without adjuvant (in words) (Septoria tritici [1]; 0.1% v/v compound E with epoxiconazole, Table 14): significant reduction in the percentage of infection by S. tritici | Adjuvant effect on efficacy of pinoxaden (in words) [12]: effective as an adjuvant for pinoxaden | Effect on infection by S. tritici versus isopyrazam without adjuvant (in words) (Septoria tritici [13]): significant reduction in the percentage of infection by S. tritici | Adjuvant effect on efficacy of nicosulfuron (in words) [10]: particularly effective adjuvant for nicosulfuron
